For data set [1], the target named is T1, Insulin-like growth factor 1 receptor (Homo sapiens, UniProt P08069). Put plainly: Inhibition of IGF-induced autophosphosphorylation of GST-tagged human IGF1R expressed in SF21 cells by time resolved-fluorescent assay.
The target in data set [2] is T1, Insulin-like growth factor 1 receptor. Put plainly: Inhibition of autophosphosphorylation of human IGF1R expressed in IGF1-stimulated MCF7 cells by ELISA. The format is cell-based. For orientation: An ELISA detects its analyte on a solid surface through an enzyme-linked reagent.
In the next data set the test system is MEF. Put plainly: Antiproliferative activity against mouse MEF cells transfected with human IGF1R assessed as inhibition of IGF1-induced proliferation after 72 hrs by [14C]thymidine incorporation assay. The data set is classed as functional, cell-based. On the technique in general: Uptake of a labelled nucleoside into DNA is a usual measure of proliferation.

In data set [3] the target is T1, Insulin-like growth factor 1 receptor. Put plainly: Inhibition of IGF-induced autophosphosphorylation of GST-tagged human IGF1R expressed in baculovirus-SF21 cell system preincubated for 5 mins by time resolved-fluorescent assay.
Data set [4] has the same target. Put plainly: Inhibition of IGF-induced autophosphosphorylation of GST-tagged human IGF1R expressed in baculovirus-SF21 cell system preincubated for 10 mins by time resolved-fluorescent assay.
Data set [5] shares this target. Nature of the data set: Inhibition of IGF-induced autophosphosphorylation of GST-tagged human IGF1R expressed in baculovirus-SF21 cell system preincubated for 30 mins by time resolved-fluorescent assay.
Data set [6] shares this target. Put plainly: Inhibition of IGF-induced autophosphosphorylation of GST-tagged human IGF1R expressed in baculovirus-SF21 cell system preincubated for 60 mins by time resolved-fluorescent assay.
Data set [7] has the same target. Nature of the data set: Inhibition of autophosphosphorylation of human IGF1R expressed in IGF1-stimulated MCF7 cells preincubated for 60 mins by ELISA. The format is cell-based.
Data set [8] has the same target. Nature of the data set: Inhibition of IGF-induced autophosphosphorylation of GST-tagged human IGF1R expressed in SF21 cells after 10 mins by time resolved-fluorescent assay.
The nature of data set [9]: Metabolic stability in human microsomes assessed as compound remaining after 15 mins. The data set is classed as ADME, Microsome. Conditions: read-out: Stability.
Data set [10] is described as follows: Oral bioavailability in BALB/c mouse at 10 mg/kg. Conditions: in vivo. The format is ADME, organism-based.
A short description of data set [11]: AUC (0 to infinity) in BALB/c mouse at 10 mg/kg, po. Details: time infinity, dose 10 mg/kg, route oral. The conditions noted are these: plasma. The data set is classed as ADME, organism-based.
Data set [12] in a line: Cmax in BALB/c mouse plasma at 10 mg/kg, po upto 24 hrs. The format is ADME, organism-based. Details: dose 10 mg/kg, route oral.
The target of the next data set is Cytochrome P450 3A4 (Homo sapiens, UniProt P08684). Nature of the data set: Inhibition of CYP3A4. The format is ADME.
Cytochrome P450 3A4, sequence (P08684 whole entry): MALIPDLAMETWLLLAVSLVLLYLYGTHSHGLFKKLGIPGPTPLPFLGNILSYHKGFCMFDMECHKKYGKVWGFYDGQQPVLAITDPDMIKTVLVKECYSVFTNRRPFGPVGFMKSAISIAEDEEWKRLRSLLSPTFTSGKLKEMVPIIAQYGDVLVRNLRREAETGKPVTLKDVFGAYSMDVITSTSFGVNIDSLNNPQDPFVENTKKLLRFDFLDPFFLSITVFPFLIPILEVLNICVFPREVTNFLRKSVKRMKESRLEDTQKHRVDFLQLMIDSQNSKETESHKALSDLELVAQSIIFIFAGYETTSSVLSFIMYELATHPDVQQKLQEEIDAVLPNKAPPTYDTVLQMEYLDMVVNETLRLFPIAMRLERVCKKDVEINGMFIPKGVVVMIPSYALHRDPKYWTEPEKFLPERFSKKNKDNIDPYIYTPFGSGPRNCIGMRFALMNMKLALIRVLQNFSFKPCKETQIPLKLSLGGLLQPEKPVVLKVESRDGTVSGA
Another data set deals with T2, Cytochrome P450 1A2 (Homo sapiens, UniProt P05177).
T2 sequence (P05177 whole entry): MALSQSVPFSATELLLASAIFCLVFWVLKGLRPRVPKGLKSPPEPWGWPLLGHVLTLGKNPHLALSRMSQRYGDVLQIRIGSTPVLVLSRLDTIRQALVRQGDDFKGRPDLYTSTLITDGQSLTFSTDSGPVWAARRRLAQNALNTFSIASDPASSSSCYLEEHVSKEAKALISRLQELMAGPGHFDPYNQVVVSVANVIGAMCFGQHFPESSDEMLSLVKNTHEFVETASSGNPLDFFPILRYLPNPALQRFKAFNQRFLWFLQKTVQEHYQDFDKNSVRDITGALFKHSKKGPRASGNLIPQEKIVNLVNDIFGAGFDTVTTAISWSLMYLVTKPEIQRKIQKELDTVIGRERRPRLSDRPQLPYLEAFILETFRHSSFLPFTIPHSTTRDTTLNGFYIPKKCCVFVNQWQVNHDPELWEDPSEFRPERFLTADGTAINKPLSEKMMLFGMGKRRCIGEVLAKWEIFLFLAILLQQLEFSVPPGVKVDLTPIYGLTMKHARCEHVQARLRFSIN
Put plainly: Inhibition of CYP1A2. The format is ADME.

The next data set concerns the target Cytochrome P450 2D6 (Homo sapiens, UniProt P10635). Put plainly: Inhibition of CYP2D6. The data set is classed as ADME.
The next data set concerns the target Cytochrome P450 2C19 (Homo sapiens, UniProt P33261). Nature of the data set: Inhibition of CYP2C19. The data set is classed as ADME.
In a further data set the target is Cytochrome P450 2C9 (Homo sapiens, UniProt P11712). Nature of the data set: Inhibition of CYP2C9. The data set is classed as ADME.
Cytochrome P450 2C9, sequence (P11712 whole entry): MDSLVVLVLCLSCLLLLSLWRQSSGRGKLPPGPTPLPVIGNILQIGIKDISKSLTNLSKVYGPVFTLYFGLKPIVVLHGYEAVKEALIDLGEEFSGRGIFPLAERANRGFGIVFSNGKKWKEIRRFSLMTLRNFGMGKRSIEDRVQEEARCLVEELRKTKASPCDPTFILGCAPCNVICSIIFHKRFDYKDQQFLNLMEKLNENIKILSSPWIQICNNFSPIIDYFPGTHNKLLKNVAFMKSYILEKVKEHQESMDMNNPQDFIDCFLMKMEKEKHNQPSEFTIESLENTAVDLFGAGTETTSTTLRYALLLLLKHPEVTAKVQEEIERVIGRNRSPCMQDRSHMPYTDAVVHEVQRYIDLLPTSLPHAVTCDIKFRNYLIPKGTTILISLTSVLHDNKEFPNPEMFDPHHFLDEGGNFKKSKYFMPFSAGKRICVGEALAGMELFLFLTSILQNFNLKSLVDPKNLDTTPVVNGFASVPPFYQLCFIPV
A short description of data set [13]: Solubility of compound. The format is physicochemical.
In the next data set the target is Insulin receptor (Homo sapiens, UniProt P06213). Nature of the data set: Inhibition of insulin receptor kinase.
Insulin receptor, sequence (P06213 28-758 limits assumed): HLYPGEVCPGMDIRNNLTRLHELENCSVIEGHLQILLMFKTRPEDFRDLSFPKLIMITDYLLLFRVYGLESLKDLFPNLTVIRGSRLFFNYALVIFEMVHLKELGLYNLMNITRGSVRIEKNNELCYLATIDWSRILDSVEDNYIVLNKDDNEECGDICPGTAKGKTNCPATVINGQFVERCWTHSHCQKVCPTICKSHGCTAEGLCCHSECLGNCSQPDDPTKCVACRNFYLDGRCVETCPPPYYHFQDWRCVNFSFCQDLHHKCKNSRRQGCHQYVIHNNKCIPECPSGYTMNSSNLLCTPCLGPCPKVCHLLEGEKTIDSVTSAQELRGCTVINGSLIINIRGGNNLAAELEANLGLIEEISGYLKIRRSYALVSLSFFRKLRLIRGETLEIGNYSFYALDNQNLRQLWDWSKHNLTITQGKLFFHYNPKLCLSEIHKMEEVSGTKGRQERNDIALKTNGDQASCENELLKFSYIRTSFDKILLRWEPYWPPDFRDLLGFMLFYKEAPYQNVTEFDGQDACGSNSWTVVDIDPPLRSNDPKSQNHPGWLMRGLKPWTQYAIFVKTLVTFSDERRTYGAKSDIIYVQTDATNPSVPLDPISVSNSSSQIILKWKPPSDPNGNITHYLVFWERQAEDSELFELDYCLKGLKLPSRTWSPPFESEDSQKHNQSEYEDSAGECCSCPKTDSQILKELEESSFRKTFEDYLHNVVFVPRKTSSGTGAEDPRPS
Insulin receptor, sequence (P06213 763-1382 limits assumed): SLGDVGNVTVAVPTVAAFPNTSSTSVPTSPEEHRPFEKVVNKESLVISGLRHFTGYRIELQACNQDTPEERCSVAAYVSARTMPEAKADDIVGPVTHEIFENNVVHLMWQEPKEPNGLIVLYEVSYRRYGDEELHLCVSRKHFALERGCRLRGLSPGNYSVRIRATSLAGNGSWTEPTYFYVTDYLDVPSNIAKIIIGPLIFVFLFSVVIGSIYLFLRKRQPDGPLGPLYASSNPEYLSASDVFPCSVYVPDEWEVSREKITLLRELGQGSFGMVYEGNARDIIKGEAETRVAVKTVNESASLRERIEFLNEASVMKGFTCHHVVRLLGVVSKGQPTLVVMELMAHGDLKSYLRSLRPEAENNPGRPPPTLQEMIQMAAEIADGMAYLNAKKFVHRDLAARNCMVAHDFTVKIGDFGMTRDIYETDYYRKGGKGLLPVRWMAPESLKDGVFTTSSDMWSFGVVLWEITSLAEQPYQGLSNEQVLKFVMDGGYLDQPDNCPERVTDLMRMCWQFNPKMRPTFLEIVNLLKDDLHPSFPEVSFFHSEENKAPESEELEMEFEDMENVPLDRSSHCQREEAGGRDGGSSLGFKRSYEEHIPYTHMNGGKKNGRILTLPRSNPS
The nature of data set [14]: Metabolic stability in mouse liver microsomes assessed as compound remaining after 15 mins. In general terms: Liver microsomes are vesicles of endoplasmic reticulum, rich in cytochrome P450 enzymes.

≈ marks a conversion by molar mass, not a printed value. A value given as a limit tells only on which side of the number the result lay.

The IC50 is the concentration at which inhibition is half-maximal. By bioavailability is commonly meant dose-corrected exposure relative to a reference, in per cent. Read a low bioavailability as poor availability. The term AUC(0-inf) denotes the area under the concentration-time curve extrapolated to infinity. Lower therefore signals less exposure. In general, Cmax refers to the maximum level reached in the sampled fluid or tissue. The term solubility denotes how much of the substance goes into solution per volume. Low values mean a poorly soluble substance, high ones a readily soluble substance.

T1 sequence (P08069 31-736 limits assumed): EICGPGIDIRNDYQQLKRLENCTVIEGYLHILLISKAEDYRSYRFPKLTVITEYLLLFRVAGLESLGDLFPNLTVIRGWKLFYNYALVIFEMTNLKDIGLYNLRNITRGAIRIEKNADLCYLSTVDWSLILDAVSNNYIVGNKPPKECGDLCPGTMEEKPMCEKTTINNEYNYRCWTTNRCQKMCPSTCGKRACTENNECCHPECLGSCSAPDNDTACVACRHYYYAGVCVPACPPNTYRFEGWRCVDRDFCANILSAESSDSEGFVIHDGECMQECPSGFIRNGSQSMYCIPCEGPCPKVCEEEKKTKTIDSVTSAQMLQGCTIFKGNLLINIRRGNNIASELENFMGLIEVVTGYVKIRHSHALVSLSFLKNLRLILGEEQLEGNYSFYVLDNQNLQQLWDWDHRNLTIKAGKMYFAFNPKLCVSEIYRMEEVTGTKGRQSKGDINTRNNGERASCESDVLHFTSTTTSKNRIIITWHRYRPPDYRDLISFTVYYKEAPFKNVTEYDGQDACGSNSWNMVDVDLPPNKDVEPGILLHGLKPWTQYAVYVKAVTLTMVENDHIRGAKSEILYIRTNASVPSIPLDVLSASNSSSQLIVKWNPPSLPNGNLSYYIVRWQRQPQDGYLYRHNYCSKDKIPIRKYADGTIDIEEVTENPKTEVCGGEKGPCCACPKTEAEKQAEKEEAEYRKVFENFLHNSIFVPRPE
T1 sequence (P08069 741-1367 limits assumed): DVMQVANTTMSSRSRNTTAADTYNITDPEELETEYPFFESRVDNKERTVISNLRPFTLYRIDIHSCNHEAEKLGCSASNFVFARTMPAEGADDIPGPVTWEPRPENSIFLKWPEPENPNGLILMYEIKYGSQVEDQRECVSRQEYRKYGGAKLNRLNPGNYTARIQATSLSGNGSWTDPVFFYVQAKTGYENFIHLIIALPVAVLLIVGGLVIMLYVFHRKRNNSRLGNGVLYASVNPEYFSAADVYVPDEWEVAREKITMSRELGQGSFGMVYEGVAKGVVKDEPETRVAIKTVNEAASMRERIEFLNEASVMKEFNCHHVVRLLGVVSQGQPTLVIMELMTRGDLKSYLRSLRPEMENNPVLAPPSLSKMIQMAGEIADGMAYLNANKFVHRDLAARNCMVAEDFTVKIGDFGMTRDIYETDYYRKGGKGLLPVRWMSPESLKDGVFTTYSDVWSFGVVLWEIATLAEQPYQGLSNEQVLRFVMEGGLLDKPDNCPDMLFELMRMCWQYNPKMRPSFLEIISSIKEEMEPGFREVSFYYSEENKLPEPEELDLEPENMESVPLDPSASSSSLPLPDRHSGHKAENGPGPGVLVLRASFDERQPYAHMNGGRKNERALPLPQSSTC
Cytochrome P450 2C19, sequence (P33261 whole entry): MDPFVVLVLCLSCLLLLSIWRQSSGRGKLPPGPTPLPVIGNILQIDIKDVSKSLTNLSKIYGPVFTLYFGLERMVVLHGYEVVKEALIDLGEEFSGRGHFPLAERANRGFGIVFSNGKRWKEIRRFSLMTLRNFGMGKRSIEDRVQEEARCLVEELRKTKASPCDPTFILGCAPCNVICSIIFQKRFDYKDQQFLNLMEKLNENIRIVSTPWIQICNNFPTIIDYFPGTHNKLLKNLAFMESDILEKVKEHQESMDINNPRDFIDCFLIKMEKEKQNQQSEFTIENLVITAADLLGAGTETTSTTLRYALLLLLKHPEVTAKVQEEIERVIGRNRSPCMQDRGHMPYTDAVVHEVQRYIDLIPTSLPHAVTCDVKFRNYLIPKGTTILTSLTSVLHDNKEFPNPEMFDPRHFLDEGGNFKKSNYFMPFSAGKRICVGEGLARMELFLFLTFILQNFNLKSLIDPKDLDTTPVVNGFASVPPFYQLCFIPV
Cytochrome P450 2D6, sequence (P10635 whole entry): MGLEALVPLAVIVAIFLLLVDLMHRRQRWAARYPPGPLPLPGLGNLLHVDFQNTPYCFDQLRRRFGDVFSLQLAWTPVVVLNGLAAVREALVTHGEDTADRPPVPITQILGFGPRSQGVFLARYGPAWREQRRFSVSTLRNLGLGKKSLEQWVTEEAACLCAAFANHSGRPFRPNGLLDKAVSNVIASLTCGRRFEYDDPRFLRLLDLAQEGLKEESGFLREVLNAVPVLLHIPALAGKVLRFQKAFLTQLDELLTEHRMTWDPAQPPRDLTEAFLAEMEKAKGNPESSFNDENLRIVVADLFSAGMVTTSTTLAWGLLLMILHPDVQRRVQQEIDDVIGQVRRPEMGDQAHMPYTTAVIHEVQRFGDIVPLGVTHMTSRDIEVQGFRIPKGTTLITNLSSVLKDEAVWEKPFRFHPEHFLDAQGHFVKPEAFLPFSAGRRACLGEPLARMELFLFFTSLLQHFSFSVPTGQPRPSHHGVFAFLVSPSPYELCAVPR

In [1], `C[C@H]1C(=O)N(c2ccc(S(=O)(=O)C(F)(F)F)cc2)C(=O)N1Cc1ccncc1` showed a half-inhibitory concentration (IC50) of 1600 nM. With `C[C@H]1C(=O)N(c2ccc(S(=O)(=O)C(F)(F)F)cc2)C(=O)N1CC1CCNCC1`, the concentration for half-maximal inhibition (IC50) in [1] was over 100000 nM. Take `CC1(C)C(=O)N(c2ccc(SC(F)(F)F)cc2)C(=O)N1Cc1ccnc(C#N)c1`: the IC50 in data set [1] was over 10000 nM. For the compound `C[C@H]1C(=O)N(c2ccc(S(=O)(=O)C(F)(F)F)cc2)C(=O)N1Cc1cccnc1`, the midpoint of inhibition in data set [1], the IC50, lay at 79700 nM. On to `CC1(C)C(=O)N(c2ccc(S(=O)(=O)C(F)(F)F)cc2)C(=O)N1Cc1ccnc2ccccc12`, for which, in [1], the IC50 came to 460 nM.

Regarding `C[C@H]1C(=O)N(c2ccc([S+]([O-])C(F)(F)F)cc2)C(=O)N1Cc1ccnc2ccccc12` (stereo not given in full), in [1], it took 2520 nM to reach half-maximal inhibition (IC50). In turn, `CC(C)(C)OC(=O)Nc1cc(CN2C(=O)N(c3ccc(SC(F)(F)F)cc3)C(=O)C2(C)C)ccn1` displayed an IC50 in [1] of 784 nM. In the case of `COc1cc2c(-c3cc4cccnc4[nH]3)cn(C)c2cc1OC`, the IC50 came out at 55 nM in data set [1]; 145 nM in [2]; 1600 nM in the data set with MEF; 34 nM in data set [3]; 34 nM in data set [4]; 33 nM in data set [5]. Also, the IC50 stood at 35 nM in data set [6] and 180 nM in data set [7].

`CC1(C)C(=O)N(c2ccc(SC(F)(F)F)cc2)C(=O)N1Cc1ccnc(N)c1`: the IC50 was 92 nM in [1], 34 nM in data set [2], 97 nM in the data set on MEF and 92 nM in data set [8]. `CC1(C)C(=O)N(c2ccc(SC(F)(F)F)cc2)C(=O)N1Cc1ccnc(Nc2ccccc2)c1`: 1060 nM corresponded to half-maximal inhibition in data set [1] (IC50). On to `CCc1cc(CN2C(=O)N(c3ccc(SC(F)(F)F)cc3)C(=O)C2(C)C)ccn1`, for which it took 574 nM to reach half-maximal inhibition in [1] (IC50). In turn, `CCOc1cc(CN2C(=O)N(c3ccc(SC(F)(F)F)cc3)C(=O)C2(C)C)ccn1` yielded an IC50 in [1] of 1850 nM.

Turning to `CC1(C)C(=O)N(c2ccc(SC(F)(F)F)cc2)C(=O)N1Cc1ccnc(Cl)c1`, in data set [1], the midpoint of inhibition, the IC50, lay at 995 nM. Consider `CCNc1cc(CN2C(=O)N(c3ccc(SC(F)(F)F)cc3)C(=O)C2(C)C)ccn1`, for which the IC50 in data set [1] is 154 nM; in [2], 47 nM; in the data set on MEF, 104 nM; in [8], 154 nM. `C[C@H]1C(=O)N(c2ccc(S(=O)(=O)C(F)(F)F)cc2)C(=O)N1Cc1cnc2ccccc2c1`: in data set [1], the IC50 was over 100000 nM. As to `CC1(C)C(=O)N(c2ccc(SC(F)(F)F)cc2)C(=O)N1Cc1ccnc(N2CCNCC2)c1`, the IC50 in data set [1] is over 10000 nM. Compound `CC1(C)C(=O)N(c2ccc(SC(F)(F)F)cc2)C(=O)N1Cc1ccnc(NCc2ccccc2)c1` gave an IC50 in [1] of 1050 nM. Consider `CC1(C)C(=O)N(c2ccc(SC(F)(F)F)cc2)C(=O)N1Cc1ccnc(C(=O)O)c1`, for which the IC50 in data set [1] is over 10000 nM. Turning to `CN1CCN(c2cc(CN3C(=O)N(c4ccc(SC(F)(F)F)cc4)C(=O)C3(C)C)ccn2)CC1`, in data set [1], the IC50 is over 10000 nM. On the same count and under the same terms, next, `CC1(C)C(=O)N(c2ccc(SC(F)(F)F)cc2)C(=O)N1Cc1ccnc(C(N)=O)c1`: 2950 nM. In data set [1], `CC1(C)C(=O)N(c2ccc(SC(F)(F)F)cc2)C(=O)N1Cc1ccnc(N2CCCCC2)c1` came in with an IC50 of over 10000 nM. `CN(C)c1cc(CN2C(=O)N(c3ccc(SC(F)(F)F)cc3)C(=O)C2(C)C)ccn1` showed an IC50 in data set [1] of 4500 nM. `CC1(C)C(=O)N(c2ccc(SC(F)(F)F)cc2)C(=O)N1Cc1ccncc1`: the half-inhibitory concentration (IC50) was 264 nM in data set [1], 117 nM in [2], 282 nM in the data set with MEF and 264 nM in data set [8].

As to `CC(C)Nc1cc(CN2C(=O)N(c3ccc(SC(F)(F)F)cc3)C(=O)C2(C)C)ccn1`, the IC50 in data set [1] was found to be 453 nM. On to `CNc1cc(CN2C(=O)N(c3ccc(SC(F)(F)F)cc3)C(=O)C2(C)C)ccn1`, for which, in the data set on MEF, the IC50 turned out to be 312 nM.

In turn, `C[C@H]1C(=O)N(c2ccc(S(C)(=O)=O)cc2)C(=O)N1Cc1ccnc2ccccc12` yielded an IC50 in [1] of over 100000 nM. As for `CNC(=O)c1cc(CN2C(=O)N(c3ccc(SC(F)(F)F)cc3)C(=O)C2(C)C)ccn1`, in data set [1], inhibition was half-maximal at 703 nM (IC50).

As to `C[C@H]1C(=O)N(c2ccc(S(=O)(=O)C(F)(F)F)cc2)C(=O)N1Cc1ccnc2ccccc12`, the remaining at 0.25 h in data set [9] was 82%; in data set [14], 83%. In addition, the bioavailability in data set [10] was over 100%. Also, the AUC(0-inf) in data set [11] turned out to be 13200 ng·h/mL. This compound also had a peak concentration (Cmax) in data set [12] of 1490 ng/mL. Also, the IC50 against Cytochrome P450 3A4 is over 15000 nM; against Cytochrome P450 1A2, over 15000 nM; at Cytochrome P450 2D6, over 15000 nM; at Cytochrome P450 2C19, over 15000 nM; against Cytochrome P450 2C9 it was 700 nM; with MEF, 300 nM. Besides, inhibition at Insulin receptor was half-maximal at 300 nM (IC50). The compound further displayed a solubility in data set [13] of 9.9 µg/mL (≈ 21.4 µM).

Compound `C[C@H]1C(=O)N(c2ccc(S(=O)(=O)C(F)(F)F)cc2)C(=O)N1Cc1ccccn1` yielded an IC50 in [1] of over 100000 nM. On the same count and under the same terms, the value for `C[C@H]1C(=O)N(c2ccc(S(=O)(=O)C(F)(F)F)cc2)C(=O)N1Cc1c[nH]cn1` was over 100000 nM; that for `COc1ccc(CNc2cc(CN3C(=O)N(c4ccc(SC(F)(F)F)cc4)C(=O)C3(C)C)ccn2)cc1` was 1090 nM; that for `C[C@H]1C(=O)N(c2ccc(S(=O)(=O)C(F)(F)F)cc2)C(=O)N1Cc1ccccc1` was over 100000 nM. Regarding `CC(=O)Nc1cc(CN2C(=O)N(c3ccc(SC(F)(F)F)cc3)C(=O)C2(C)C)ccn1`, the IC50 in data set [1] is 98 nM; in [2] it was 7 nM; with MEF, 8 nM; in data set [8], 98 nM; in data set [3], 175 nM; in data set [4] it was 87 nM. Further, the IC50 came out at 28 nM in data set [5], 7 nM in [6] and 7 nM in data set [7]. Compound `CC1(C)C(=O)N(c2ccc(SC(F)(F)F)cc2)C(=O)N1Cc1ccnc(NS(C)(=O)=O)c1` showed an IC50 in data set [1] of 4710 nM. Still for that read-out and setting: the value for `CC1(C)C(=O)N(c2ccc(SC(F)(F)F)cc2)C(=O)N1Cc1ccnc(NC2CCCCC2)c1` was 1240 nM. Consider `C[C@H]1C(=O)N(c2ccc(S(=O)(=O)C(F)(F)F)cc2)C(=O)N1Cc1cc[n+]([O-])c2ccccc12`, for which the IC50 in data set [1] was over 100000 nM. Still for that read-out and setting: next, `C[C@H]1C(=O)N(c2ccc(S(=O)(=O)C(F)(F)F)cc2)C(=O)N1Cc1cc[n+]([O-])cc1`: over 100000 nM; `O=C1CN(Cc2ccnc3ccccc23)C(=O)N1c1ccc(S(=O)(=O)C(F)(F)F)cc1`: 5400 nM; `CC1(C)C(=O)N(c2ccc(SC(F)(F)F)cc2)C(=O)N1Cc1ccnc(N2CCOCC2)c1`: over 10000 nM.

These data come from ChEMBL document CHEMBL1759913, “Discovery of the first non-ATP competitive IGF-1R kinase inhibitors: advantages in comparison with competitive inhibitors” (Bioorg Med Chem Lett, 2011).
